Test results as given in US4442044A, “Process for preparing monoesters and diesters of N-alkyl substituted amino methyl phosphonic acid” (priority 1983, dated 1984).

Legend:
Assay type in all cases: in vivo
Canada Thistle [1] = assay: post-emergent herbicidal activity, greenhouse; conditions: Table I, 4 WAT
Outline: (§1)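 Seeds or propagules sown in compacted top soil, grown 2–3 weeks in greenhouse, then sprayed with compound solution/suspension containing ~0.4% emulsifier at tabulated rates. Injury scored visually versus untreated controls at ~2 and 4 weeks after treatment, expressed as a herbicidal activity index.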

Sorghum = assay: post-emergent herbicidal activity, greenhouse; conditions: Table II, 4 WAT
Outline: as §1

Lambsquarters [2] = assay: post-emergent herbicidal activity, greenhouse; conditions: 4 WAT
Outline: as §1

Soybean = assay: post-emergent herbicidal activity, greenhouse; conditions: Table II, 4 WAT
Outline: as §1

Johnsongrass [3] = assay: post-emergent herbicidal activity, greenhouse; conditions: Table I, 4 WAT
Outline: as §1

Panicum Spp = assay: post-emergent herbicidal activity, greenhouse; conditions: Table II, 4 WAT
Outline: as §1

Hemp Sesbania = assay: post-emergent herbicidal activity, greenhouse; conditions: Table II, 4 WAT
Outline: as §1

Cocklebur [4] = assay: post-emergent herbicidal activity, greenhouse; conditions: 4 WAT
Outline: as §1

Velvetleaf [5] = assay: post-emergent herbicidal activity, greenhouse; conditions: 4 WAT
Outline: as §1

Rice = assay: post-emergent herbicidal activity, greenhouse; conditions: Table II, 4 WAT
Outline: as §1

Morningglory [6] = assay: post-emergent herbicidal activity, greenhouse; conditions: 4 WAT
Outline: as §1

Wild Buckwheat = assay: post-emergent herbicidal activity, greenhouse; conditions: Table II, 4 WAT
Outline: as §1

Yellow Nutsedge [7] = assay: post-emergent herbicidal activity, greenhouse; conditions: Table I, 4 WAT
Outline: as §1

Crabgrass = assay: post-emergent herbicidal activity, greenhouse; conditions: Table II, 4 WAT
Outline: as §1

Wheat = assay: post-emergent herbicidal activity, greenhouse; conditions: Table II, 4 WAT
Outline: as §1

Quackgrass [8] = assay: post-emergent herbicidal activity, greenhouse; conditions: Table I, 4 WAT
Outline: as §1

Smartweed [9] = assay: post-emergent herbicidal activity, greenhouse; conditions: 4 WAT
Outline: as §1

Sugar Beet = assay: post-emergent herbicidal activity, greenhouse; conditions: Table II, 4 WAT
Outline: as §1

Barnyardgrass [10] = assay: post-emergent herbicidal activity, greenhouse; conditions: 4 WAT
Outline: as §1

Downy Brome [11] = assay: post-emergent herbicidal activity, greenhouse; conditions: 4 WAT
Outline: as §1

Canada Thistle [12] = assay: pre-emergent herbicidal activity, soil incorporation; conditions: Table III, 2 WAT, 11.2 kg/h
Outline: (§2)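 Soil-incorporation pre-emergence test. Covering soil weighed and mixed with known amount of active ingredient, layered over pressed-in seeds/propagules; bottom watering, wet sand bench, ~2 wk. Read-out: emergence count vs untreated control, scored as index of average percent control.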

Lambsquarters [13] = assay: as above; conditions: Table III, 2 WAT, 11.2 kg/h
Outline: as §2

Johnsongrass [14] = assay: as above; conditions: Table III, 2 WAT, 11.2 kg/h
Outline: as §2

Cocklebur [15] = assay: as above; conditions: Table III, 2 WAT, 11.2 kg/h
Outline: as §2

Velvetleaf [16] = assay: as above; conditions: Table III, 2 WAT, 11.2 kg/h
Outline: as §2

Morningglory [17] = assay: as above; conditions: Table III, 2 WAT, 11.2 kg/h
Outline: as §2

Yellow Nutsedge [18] = assay: as above; conditions: Table III, 2 WAT, 11.2 kg/h
Outline: as §2

Quackgrass [19] = assay: as above; conditions: Table III, 2 WAT, 11.2 kg/h
Outline: as §2

Smartweed [20] = assay: as above; conditions: Table III, 2 WAT, 11.2 kg/h
Outline: as §2

Barnyardgrass [21] = assay: as above; conditions: Table III, 2 WAT, 11.2 kg/h
Outline: as §2

Downy Brome [22] = assay: as above; conditions: Table III, 2 WAT, 11.2 kg/h
Outline: as §2

`CCCCCOC(=O)CNCP(=O)(O)OC(C)C#N` (stereo not drawn) [Example 6, glycine, N-[[(1-cyanoethoxy)hydroxy-phosphinyl]methyl]pentyl ester, hemihydrate] was tested, and the “post-emergent herbicidal activity index” value (Canada Thistle [1]; 5.6 kg/h) was 4 (100% control), the “post-emergent herbicidal activity index” value (Canada Thistle [1]; 11.2 kg/h) was 4 (100% control) and the “post-emergent herbicidal activity index” value (Sorghum; 0.28 kg/h) was 1 (25-49% control). For the same molecule, the “post-emergent herbicidal activity index” value (Sorghum; 1.12 kg/h) was 3 (75-99% control), the “post-emergent herbicidal activity index” value (Sorghum; 5.6 kg/h) was 4 (100% control) and the “post-emergent herbicidal activity index” value (Lambsquarters [2]; Table I, 5.6 kg/h) was 2 (50-74% control). For the same molecule, the “post-emergent herbicidal activity index” value (Lambsquarters [2]; Table I, 11.2 kg/h) was 4 (100% control), the “post-emergent herbicidal activity index” value (Lambsquarters [2]; Table II, 0.28 kg/h) was 1 (25-49% control) and the “post-emergent herbicidal activity index” value (Lambsquarters [2]; Table II, 1.12 kg/h) was 3 (75-99% control). The “post-emergent herbicidal activity index” value (Lambsquarters [2]; Table II, 5.6 kg/h) was 4 (100% control), the “post-emergent herbicidal activity index” value (Soybean; 0.28 kg/h) was 1 (25-49% control) and the “post-emergent herbicidal activity index” value (Soybean; 1.12 kg/h) was 2 (50-74% control). The “post-emergent herbicidal activity index” value (Soybean; 5.6 kg/h) was 4 (100% control), the “post-emergent herbicidal activity index” value (Johnsongrass [3]; 5.6 kg/h) was 1 (25-49% control) and the “post-emergent herbicidal activity index” value (Johnsongrass [3]; 11.2 kg/h) was 2 (50-74% control). The “post-emergent herbicidal activity index” value (Panicum Spp; 0.28 kg/h) was 4 (100% control), the “post-emergent herbicidal activity index” value (Panicum Spp; 1.12 kg/h) was 4 (100% control) and the “post-emergent herbicidal activity index” value (Panicum Spp; 5.6 kg/h) was 4 (100% control). The “post-emergent herbicidal activity index” value (Hemp Sesbania; 0.28 kg/h) was 1 (25-49% control), the “post-emergent herbicidal activity index” value (Hemp Sesbania; 1.12 kg/h) was 2 (50-74% control) and the “post-emergent herbicidal activity index” value (Hemp Sesbania; 5.6 kg/h) was 4 (100% control). The “post-emergent herbicidal activity index” value (Cocklebur [4]; Table I, 5.6 kg/h) was 3 (75-99% control), the “post-emergent herbicidal activity index” value (Cocklebur [4]; Table I, 11.2 kg/h) was 3 (75-99% control) and the “post-emergent herbicidal activity index” value (Cocklebur [4]; Table II, 0.28 kg/h) was 2 (50-74% control). The “post-emergent herbicidal activity index” value (Cocklebur [4]; Table II, 1.12 kg/h) was 2 (50-74% control), the “post-emergent herbicidal activity index” value (Cocklebur [4]; Table II, 5.6 kg/h) was 3 (75-99% control) and the “post-emergent herbicidal activity index” value (Velvetleaf [5]; Table I, 5.6 kg/h) was 3 (75-99% control). For the same molecule, the “post-emergent herbicidal activity index” value (Velvetleaf [5]; Table I, 11.2 kg/h) was 3 (75-99% control), the “post-emergent herbicidal activity index” value (Velvetleaf [5]; Table II, 0.28 kg/h) was 1 (25-49% control) and the “post-emergent herbicidal activity index” value (Velvetleaf [5]; Table II, 1.12 kg/h) was 2 (50-74% control). The “post-emergent herbicidal activity index” value (Velvetleaf [5]; Table II, 5.6 kg/h) was 3 (75-99% control), the “post-emergent herbicidal activity index” value (Rice; 0.28 kg/h) was 1 (25-49% control) and the “post-emergent herbicidal activity index” value (Rice; 1.12 kg/h) was 2 (50-74% control). For the same molecule, the “post-emergent herbicidal activity index” value (Rice; 5.6 kg/h) was 4 (100% control), the “post-emergent herbicidal activity index” value (Morningglory [6]; Table I, 5.6 kg/h) was 3 (75-99% control) and the “post-emergent herbicidal activity index” value (Morningglory [6]; Table I, 11.2 kg/h) was 2 (50-74% control). The “post-emergent herbicidal activity index” value (Morningglory [6]; Table II, 0.28 kg/h) was 2 (50-74% control), the “post-emergent herbicidal activity index” value (Morningglory [6]; Table II, 1.12 kg/h) was 2 (50-74% control) and the “post-emergent herbicidal activity index” value (Morningglory [6]; Table II, 5.6 kg/h) was 3 (75-99% control). For the same molecule, the “post-emergent herbicidal activity index” value (Wild Buckwheat; 0.28 kg/h) was 2 (50-74% control), the “post-emergent herbicidal activity index” value (Wild Buckwheat; 1.12 kg/h) was 2 (50-74% control) and the “post-emergent herbicidal activity index” value (Wild Buckwheat; 5.6 kg/h) was 4 (100% control). For the same molecule, the “post-emergent herbicidal activity index” value (Yellow Nutsedge [7]; 5.6 kg/h) was 2 (50-74% control), the “post-emergent herbicidal activity index” value (Yellow Nutsedge [7]; 11.2 kg/h) was 4 (100% control) and the “post-emergent herbicidal activity index” value (Crabgrass; 0.28 kg/h) was 3 (75-99% control). For the same molecule, the “post-emergent herbicidal activity index” value (Crabgrass; 1.12 kg/h) was 3 (75-99% control), the “post-emergent herbicidal activity index” value (Crabgrass; 5.6 kg/h) was 4 (100% control) and the “post-emergent herbicidal activity index” value (Wheat; 0.28 kg/h) was 2 (50-74% control). The “post-emergent herbicidal activity index” value (Wheat; 1.12 kg/h) was 2 (50-74% control), the “post-emergent herbicidal activity index” value (Wheat; 5.6 kg/h) was 4 (100% control) and the “post-emergent herbicidal activity index” value (Quackgrass [8]; 5.6 kg/h) was 2 (50-74% control). For the same molecule, the “post-emergent herbicidal activity index” value (Quackgrass [8]; 11.2 kg/h) was 3 (75-99% control), the “post-emergent herbicidal activity index” value (Smartweed [9]; Table I, 5.6 kg/h) was 4 (100% control) and the “post-emergent herbicidal activity index” value (Smartweed [9]; Table I, 11.2 kg/h) was 4 (100% control). For the same molecule, the “post-emergent herbicidal activity index” value (Smartweed [9]; Table II, 0.28 kg/h) was 1 (25-49% control), the “post-emergent herbicidal activity index” value (Smartweed [9]; Table II, 1.12 kg/h) was 3 (75-99% control) and the “post-emergent herbicidal activity index” value (Smartweed [9]; Table II, 5.6 kg/h) was 3 (75-99% control). The “post-emergent herbicidal activity index” value (Sugar Beet; 0.28 kg/h) was 2 (50-74% control), the “post-emergent herbicidal activity index” value (Sugar Beet; 1.12 kg/h) was 4 (100% control) and the “post-emergent herbicidal activity index” value (Sugar Beet; 5.6 kg/h) was 4 (100% control). For the same molecule, the “post-emergent herbicidal activity index” value (Barnyardgrass [10]; Table I, 5.6 kg/h) was 3 (75-99% control), the “post-emergent herbicidal activity index” value (Barnyardgrass [10]; Table I, 11.2 kg/h) was 3 (75-99% control) and the “post-emergent herbicidal activity index” value (Barnyardgrass [10]; Table II, 0.28 kg/h) was 2 (50-74% control). The “post-emergent herbicidal activity index” value (Barnyardgrass [10]; Table II, 1.12 kg/h) was 3 (75-99% control), the “post-emergent herbicidal activity index” value (Barnyardgrass [10]; Table II, 5.6 kg/h) was 3 (75-99% control) and the “post-emergent herbicidal activity index” value (Downy Brome [11]; Table I, 5.6 kg/h) was 1 (25-49% control). The “post-emergent herbicidal activity index” value (Downy Brome [11]; Table I, 11.2 kg/h) was 3 (75-99% control), the “post-emergent herbicidal activity index” value (Downy Brome [11]; Table II, 0.28 kg/h) was 3 (75-99% control) and the “post-emergent herbicidal activity index” value (Downy Brome [11]; Table II, 1.12 kg/h) was 3 (75-99% control). The “post-emergent herbicidal activity index” value (Downy Brome [11]; Table II, 5.6 kg/h) was 4 (100% control), the “pre-emergent herbicidal activity index” value (Canada Thistle [12]) was 0 (1-24% control) and the “pre-emergent herbicidal activity index” value (Lambsquarters [13]) was 0 (1-24% control). For the same molecule, the “pre-emergent herbicidal activity index” value (Johnsongrass [14]) was 0 (1-24% control), the “pre-emergent herbicidal activity index” value (Cocklebur [15]) was 0 (1-24% control) and the “pre-emergent herbicidal activity index” value (Velvetleaf [16]) was 0 (1-24% control). The “pre-emergent herbicidal activity index” value (Morningglory [17]) was 0 (1-24% control), the “pre-emergent herbicidal activity index” value (Yellow Nutsedge [18]) was 0 (1-24% control) and the “pre-emergent herbicidal activity index” value (Quackgrass [19]) was 0 (1-24% control). The “pre-emergent herbicidal activity index” value (Smartweed [20]) was 0 (1-24% control), the “pre-emergent herbicidal activity index” value (Barnyardgrass [21]) was 0 (1-24% control) and the “pre-emergent herbicidal activity index” value (Downy Brome [22]) was 0 (1-24% control).
